Laboratory results from patent US5086042A, “Peptides with sulfate ester groups” (Fisons Corporation, priority 1989, dated 1992).
Several values for one entry are separate records, joined by “and”; a condition that tells them apart may be missing. Identical values can stand only once. Non-standard residues stand in square brackets, D forms with d. Residues, ends and D or L forms follow the SMILES beside them. sY = N[C@@H](Cc1ccc(OS(=O)(=O)O)cc1)C(=O)O

Test system: Male Sprague-Dawley rats
Format: in vivo
Conditions: rat, intraperitoneal; for % FEEDING INHIBITION 0.5 hr / % FEEDING INHIBITION 3 hr: 30 μg/kg, vs saline controls; for % FEEDING INHIBITION 3 hr: IA means inactive; for feeding inhibition during the 0.5 hour feeding period: 0.3 μg/kg; for feeding inhibition during the 3 hour feeding period: 3 μg/kg
Procedure: The peptides of this invention have the ability to inhibit feeding activity in mammals. As a result they have utility in the prevention and treatment of obesity.
Male Sprague-Dawley rats (weighing 300-350 g) are individually caged and maintained on a 12 hr. light, dark cycle and trained for at least 14 days to feed during a three hr period of the dark cycle but not the 21 hours preceding that three hr period. The day of the study, rats are dosed intraperitoneally with saline (controls) or test compound (dissolved in saline; usually at a concentration of 0.3 to 300 micrograms of test compound per kg of rat weight). Food is introduced 10 minutes after administration of saline or test compound. […] The % feeding inhibition for the 1/2 hr and 3 hr feeding periods obtained by administering a dose of 30 μg/kg of test compound is given in Table 2 for CCK-8 and various compounds of the invention. For example, the % feeding inhibition obtained with CCK-8 (first line of Table 2) was 70% for the 1/2 hr feeding period and 25% for the 3-hour period.

Compound	% FEEDING INHIBITION 0.5 hr (0.5 hr feeding period)	% FEEDING INHIBITION 3 hr (3 hr feeding period)	% FEEDING INHIBITION 3 hr (values marked *) (300 μg/kg, 3 hr feeding period, <10% inhibition at 30 μg/kg)	% FEEDING INHIBITION 0.5 hr (values marked *) (300 μg/kg, 0.5 hr feeding period, <10% inhibition at 30 μg/kg)	feeding inhibition during the 0.5 hour feeding period (0.5 hr feeding period)	feeding inhibition during the 3 hour feeding period (3 hr feeding period)
CSCC[C@H](NC(=O)[C@H](Cc1ccc(OS(=O)(=O)O)cc1)NC(=O)[C@H](N)CC(=O)O)C(=O)NCC(=O)N[C@@H](Cc1c[nH]c2ccccc12)C(=O)N[C@@H](CCSC)C(=O)N[C@@H](CC(=O)O)C(=O)N[C@@H](Cc1ccccc1)C(N)=O [H-DAsp-Tyr(SO3 H)-Met-Gly-Trp-Met-Asp-Phe-NH2]	99%	40%				
CSCC[C@H](NC(=O)[C@H](Cc1c[nH]c2ccccc12)NC(=O)CNC(=O)[C@H](CCSC)NC(=O)[C@@H](N)Cc1ccc(OS(=O)(=O)O)cc1)C(=O)N[C@@H](CC(=O)O)C(=O)N[C@@H](Cc1ccccc1)C(N)=O [H-Try(SO3 H)-Met-Gly-Trp-Met-Asp-Phe-NH2, H-Tyr(SO3 H)-Met-Gly-Trp-Met-Asp-Phe-NH2] (HELM PEPTIDE1{[N[C@@H](Cc1ccc(OS(=O)(=O)O)cc1)C(=O)[*:2]].M.G.W.M.D.F.[am]}$$$$V2.0)	50%		30%			
CSCC[C@H](NC(=O)[C@H](Cc1ccc(OS(=O)(=O)O)cc1)NC(=O)C[C@H](N)C(=O)O)C(=O)NCC(=O)N[C@@H](Cc1c[nH]c2ccccc12)C(=O)N[C@@H](CCSC)C(=O)N[C@@H](CC(=O)O)C(=O)N[C@@H](Cc1ccccc1)C(N)=O [H-βAsp-Tyr(SO3 H)-Met-Gly-Trp-Met-Asp-Phe-NH2]	91%	21%				
CC[C@H](C)[C@H](NC(=O)[C@H](Cc1ccc(OS(=O)(=O)O)cc1)NC(=O)CCC(=O)O)C(=O)NCC(=O)N[C@@H](Cc1c[nH]c2ccccc12)C(=O)N[C@H](C(=O)N[C@@H](CC(=O)O)C(=O)N[C@@H](Cc1ccccc1)C(N)=O)[C@@H](C)CC [Suc-Tyr(SO3 H)-Ile-Gly-Trp-Ile-Asp-Phe-NH2] (HELM PEPTIDE1{[O=C(O)CCC(=O)[*:2]].[O=C([C@H](Cc1ccc(OS(=O)(=O)O)cc1)N[*:1])[*:2]].I.G.W.I.D.F.[am]}$$$$V2.0)	73%	54%				
CSCC[C@H](NC(=O)[C@H](Cc1c[nH]c2ccccc12)NC(=O)[C@@H](C)NC(=O)[C@H](CCSC)NC(=O)[C@H](Cc1ccc(OS(=O)(=O)O)cc1)NC(=O)CCC(=O)O)C(=O)N[C@@H](CC(=O)O)C(=O)N[C@@H](Cc1ccccc1)C(N)=O [Suc-Tyr(SO3 H)-Met-DAla-Trp-Met-Asp-Phe-NH2] (HELM PEPTIDE1{[O=C(O)CCC(=O)[*:2]].[O=C([C@H](Cc1ccc(OS(=O)(=O)O)cc1)N[*:1])[*:2]].M.[dA].W.M.D.F.[am]}$$$$V2.0)	75%	30%				
CSCC[C@H](NC(=O)[C@H](Cc1ccc(OS(=O)(=O)O)cc1)NC(=O)CCC(=O)O)C(=O)NCC(=O)N[C@@H](Cc1c[nH]c2ccccc12)C(=O)N[C@@H](CCSC)C(=O)N[C@@H](CC(=O)O)C(=O)N[C@@H](Cc1ccccc1)C(N)=O [Suc-Tyr(SO3 H)-Met-Gly-Trp-Met-Asp-Phe-NH2] (HELM PEPTIDE1{[O=C(O)CCC(=O)[*:2]].[O=C([C@H](Cc1ccc(OS(=O)(=O)O)cc1)N[*:1])[*:2]].M.G.W.M.D.F.[am]}$$$$V2.0)	75%	55%				
H-Asp-Tyr(SO3 H)-Ahx-Gly-Trp-Ahx-Asp-Phe-NH2	82%	27%				
H-Asp-Tyr(SO3 H)-Met-Gly-Trp-Ahx-Asp-Phe-NH2	82%	23%				
H-Asp-Tyr(SO3 H)-Met-Gly-Trp-Met-Asp-Tyr-NH2 (H-D[sY]MGWMDY-NH2; not fully specified)				23%		
Hpp(SO3 H)-Ahx-Gly-Trp-Ahx-Asp-Phe-NH2	100%	99%			20-72%	50-90%
Hpp(SO3 sH)-Ahx-Gly-Trp-Ahx-Asp-MePhe-NH2 [Hpp(SO3 H)-Ahx-Gly-Trp-Ahx-Asp-MePhe-NH2]	94%	96%			20-72%	50-90%
Hpp(SO3 sH)-Ile-Gly-Trp-Ahx-Asp-MePhe-NH2 [Hpp(SO3 H)-Ile-Gly-Trp-Ahx-Asp-MePhe-NH2]	98%	100%			20-72%	50-90%
Suc-Tyr(SO3 H)-Ahx-Gly-Trp-Ahx-Asp-Phe-NH2	100%	97%			20-72%	50-90%
Suc-Tyr(SO3 H)-Ile-Gly-Trp-Ahx-Asp-MePhe-NH2	100%	100%			20-72%	50-90% and 90%
Suc-Tyr(SO3 ° H)-Ahx-Gly-Trp-Ahx-Asp-MePhe-NH2	100%	98%			20-72%	50-90%
iBuOCO-Tyr(SO3 H)-Ahx-Gly-Trp-Ahx-Asp-MePhe-NH2	100%	100%			20-72%	50-90%
iBuOCO-Tyr(SO3 H)-Ahx-Gly-Trp-Ahx-Asp-Phe-NH2	100%	100%			20-72%	50-90%
